{"source": "patent US7625912B2", "about": "“Mitotic kinesin inhibitors” (Merck & Co. Inc, priority 2003, dated 2009)", "molecular_target": "T1, human KSP motor domain (KSP(367H)) (Homo sapiens, UniProt P52732)", "T1 construct": "were used to amplify the motor domain and the neck linker region; made in house; host or cells: E. coli BL21 (DE3), pRSETa vector", "T1 sequence (P52732 18-359 limits assumed)": "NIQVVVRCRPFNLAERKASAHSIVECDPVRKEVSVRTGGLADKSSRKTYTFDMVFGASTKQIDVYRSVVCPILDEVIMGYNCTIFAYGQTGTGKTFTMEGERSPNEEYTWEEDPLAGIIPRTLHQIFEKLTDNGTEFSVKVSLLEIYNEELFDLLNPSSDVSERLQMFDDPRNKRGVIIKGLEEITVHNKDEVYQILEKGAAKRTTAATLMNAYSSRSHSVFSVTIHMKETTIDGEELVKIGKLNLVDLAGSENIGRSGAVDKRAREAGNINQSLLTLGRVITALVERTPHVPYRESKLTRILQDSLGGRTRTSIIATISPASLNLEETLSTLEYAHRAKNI", "assay": "Kinesin ATPase in vitro assay", "format": "biochemical", "conditions": "microtubules, 1 mM ATP, 23° C.; free phosphate by quinaldine red/ammonium molybdate, absorbance 540 nm", "excerpt": "I. Kinesin ATPase In Vitro Assay\nCloning and Expression of Human Poly-Histidine Tagged KSP Motor Domain (KSP(367H))\nPlasmids for the expression of the human KSP motor domain construct were cloned by PCR using a pBluescript full length human KSP construct (Blangy et al., Cell, vol. 83, pp 1159-1169, 1995) as a template. The N-terminal primer 5′-[…] (SEQ.ID.NO.: 1) and the C-terminal primer 5′-[…] […] (SEQ.ID.NO.: 2) were used to amplify the motor domain and the neck linker region. The PCR products were digested with AseI and XhoI, ligated into the NdeL/XhoI digestion product of pRSETa (Invitrogen) and transformed into E. coli BL21 (DE3).\nCells were grown at 37° C. to an OD600 of 0.5. […]\nThe kinesin motor domain is incubated with microtubules, 1 mM ATP (1:1 MgCl2: Na-ATP), and compound at 23° C. in buffer containing 80 mM K-HEPES (pH 7.0), 1 mM EGTA, 1 mM DTT, 1 mM MgCl2, and 50 mM KCl. […] Free phosphate from the ATP hydrolysis reaction is measured via a quinaldine red/ammonium molybdate assay by adding 150 μl of quench C buffer containing a 2:1 ratio of quench A:quench B. Quench A contains 0.1 mg/ml quinaldine red and 0.14% polyvinyl alcohol; quench B contains 12.3 mM ammonium molybdate tetrahydrate in 1.15 M sulfuric acid. The reaction is incubated for 10 minutes at 23° C., and the absorbance of the phospho-molybdate complex is measured at 540 nm.", "data": [{"smiles": "Cc1ccc(-n2c(-c3ccccc3Br)nccc2=O)cc1F", "note": "[1-4, 2-(2-bromophenyl)-3-(3-fluoro-4-methylphenyl)pyrimidin-4(3H)-one]", "values": [{"measurement": "IC50", "result": "≤ 50", "unit": "µM"}]}]}
